Where two headings read alike, the source gives them in different places.
Tests used:
[1] = tested on: human mammary adenocarcinoma (MCF-7); test: SRB cytotoxicity assay, MCF-7; type: cell-based; details: MCF7, SRB method, 48 h exposure, ± SD, read-out: Cell Line IC50 MCF-7
Procedure: (§1) Cytotoxicity was evaluated based on the percentage of cell growth inhibition. The cancer cell lines were obtained from the National Cancer Institute (NCI, Bethesda, MD). The study utilized human cancer cell lines derived from central nervous system glia (U251), prostate (PC-3), leukemia (K562), colon (HCT-15), breast (MCF-7), and lung (SKLU). Each cell line was maintained in RPMI 1640 medium supplemented with fetal bovine serum (10%), L-glutamate (2.0 mM), 10,000 units/mL penicillin G, 10,000 […] sulfate, […] amphotericin B and 1% nonessential amino acids. Cytotoxicity was assessed by treating cancerous cells with the extract, the saponin fraction, and the major isolated compounds, all of which were solubilized in ultrapure water (18.2 MΩ) and tested at a concentration of 25 μg/mL. For the determination of IC50 values, the same cancer cell lines were evaluated and had the same treatment, while the range of concentrations was 25, 12.5, 6.5, 5.0, 2.5, and 1.25 μg/mL in triplicate wells for each concentration; commercially formulated mitoxantrone, used as a water-soluble chemotherapeutic drug, was used as a positive control, and ultrapure water was used as a negative control. The resulting data obtained from the assay for each cell line were analyzed using nonlinear regression to calculate IC50 using GraphPad Prism 10.5.0 (San Diego, CA, USA). The percentage of cell growth inhibition was determined by using the protein-binding dye sulforhodamine B (SRB) in a microculture assay. Cells were harvested from culture flasks and seeded into 96-well plates at a density of 5,000 to 10,000 cells per well, maintaining the same temperature and humidity conditions as during culture incubation. The test compounds were then added, and cells were exposed for 48 h. After incubation, cells were fixed in situ by adding 50 μL of cold 50% trichloroacetic acid and incubating at 4 °C for 1 h. […] The plates were then shaken for 10 min, and absorbance was measured at 515 nm using a microplate spectrophotometer.

[2] = tested on: human chronic myelogenous leukemia (K562); test: SRB cytotoxicity assay, K562; type: cell-based; details: SRB method, 48 h exposure, ± SD, read-out: Cell Line IC50 K562
Procedure: as §1

[3] = tested on: human colorectal adenocarcinoma (HCT-15); test: SRB cytotoxicity assay, HCT-15; type: cell-based; details: SRB method, 48 h exposure, ± SD, read-out: Cell Line IC50 HCT-15
Procedure: as §1

[4] = tested on: human glioblastoma (U251); test: SRB cytotoxicity assay, U251; type: cell-based; details: U-251, SRB method, 48 h exposure, ± SD, read-out: Cell Line IC50 U251
Procedure: as §1

[5] = tested on: human lung adenocarcinoma (SKLU-1); test: SRB cytotoxicity assay, SKLU-1; type: cell-based; details: SK-LU-1, SRB method, 48 h exposure, ± SD, read-out: Cell Line IC50 SKLU-1
Procedure: as §1

[6] = tested on: cancer cell lines U251, PC-3, K562, HCT-15, MCF-7, SKLU-1; test: SRB cytotoxicity assay, panel of six cancer cell lines; type: cell-based, human; details: for growth inhibition (cytotoxic activity) of cancer cell lines: 25 μg/mL, six cell lines, result in words (Figure 1)
Procedure: Cytotoxicity was evaluated based on the percentage of cell growth inhibition. The cancer cell lines were obtained from the National Cancer Institute (NCI, Bethesda, MD). The study utilized human cancer cell lines derived from central nervous system glia (U251), prostate (PC-3), leukemia (K562), colon (HCT-15), breast (MCF-7), and lung (SKLU). Each cell line was maintained in RPMI 1640 medium supplemented with fetal bovine serum (10%), L-glutamate (2.0 mM), 10,000 units/mL penicillin G, […] streptomycin sulfate, 25 mg/mL amphotericin B and 1% nonessential amino acids. Cytotoxicity was assessed by treating cancerous cells with the extract, the saponin fraction, and the major isolated compounds, all of which were solubilized in ultrapure water (18.2 MΩ) and tested at a concentration of 25 μg/mL. For the determination of IC50 values, the same cancer cell lines were evaluated and had the same treatment, while the range of concentrations was 25, 12.5, 6.5, 5.0, 2.5, and 1.25 μg/mL in triplicate wells for each concentration; commercially formulated mitoxantrone, used as a water-soluble chemotherapeutic drug, was used as a positive control, and ultrapure water was used as a negative control. The resulting data obtained from the assay for each cell line were analyzed using nonlinear regression to calculate IC50 using GraphPad Prism 10.5.0 (San Diego, CA, USA). The percentage of cell growth inhibition was determined by using the protein-binding dye sulforhodamine B (SRB) in a microculture assay. Cells were harvested from culture flasks and seeded into 96-well plates at a density of 5,000 to 10,000 cells per well, maintaining the same temperature and humidity conditions as during culture incubation. The test compounds were then added, and cells were exposed for 48 h. After incubation, cells were fixed in situ by adding 50 μL of cold 50% trichloroacetic acid and incubating at 4 °C for 1 h. The plates were then washed with Milli-Q water, air-dried at room temperature, and stained with a 0.4% SRB solution. Excess SRB was removed by washing with 1% aqueous acetic acid. The plates were air-dried, and the bound dye was solubilized with 100 μL of a 10 mM unbuffered Tris base. The plates were then shaken for 10 min, and absorbance was measured at 515 nm using a microplate spectrophotometer.

[7] = tested on: human prostatic adenocarcinoma (PC-3); test: SRB cytotoxicity assay, PC-3; type: cell-based; details: SRB method, 48 h exposure, ± SD, read-out: Cell Line IC50 PC-3
Procedure: as §1

[8] = Homo sapiens, span over the evaluated cell lines, SRB method, read-out: IC50 values across the tested cancer cell lines

SMILES	IC50 [1] [nM]	IC50 [2] [nM]	IC50 [3] [nM]	IC50 [4] [nM]	IC50 [5] [nM]	growth inhibition (cytotoxic activity) of cancer cell lines ([6]; SRB method)	IC50 [6, 8] [nM]	IC50 [7] [nM]	IC50 ([6]; Homo sapiens, span over MCF-7 and SKLU-1 cell lines, read-out: IC50 values against MCF-7 and SKLU-1) [nM]	IC50 ([6]; span over the evaluated cell lines, SRB method, read-out: IC50 values across the tested cancer cell lines) [nM]
CC(=O)OC(C)(C)CCCC1(C)OC(=O)C23C(O)C=C4C(CCC5C4(C)CCC(OC4OCC(OS(=O)(=O)O)C(O)C4OC4OC(C)C(O)C(O)C4O)C5(C)C)C2(C)CCC13O [Inornatoside A (1), 25-acetoxy-3-O-(β-D-quinovopyranosyl-(1→2)-4-O-sodiumsulfate-β-D-xylopyranoside)-holost-9(11)-ene-3β,12α,17α-triol]	> 50000	4240 ± 20	4690 ± 10	3530 ± 130	3650 ± 20	significantly more active than holothurin B (7)	3530 to 5350	5350 ± 10	–	–
COC1C(O)C(CO)OC(OC2C(O)C(CO)OC(OC3C(C)OC(OC4C(OC5CCC6(C)C7=CC(O)C89C(=O)OC(C)(CCCC(C)(C)OC(C)=O)C8(O)CCC9(C)C7CCC6C5(C)C)OCC(OS(=O)(=O)O)C4O)C(O)C3O)C2O)C1O [Inornatoside B (2), 25-acetoxy-3-O-(3-O-methyl-β-D-glucopyranosyl-(1→3)-β-D-glucopyranosyl-(1→4)-β-D-quinovopyranosyl-(1→2)-4-O-sodiumsulfate-β-D-xylopyranoside)-holost-9(11)-ene-3β,12α,17α-triol]	470 ± 40	480 ± 10	1040 ± 10	540 ± 10	500 ± 10	significantly more active than holothurin B (7)	470 to 1040	490 ± 10	470 to 500	~500
O=C1c2c(O)ccc(O)c2C(=O)c2c(NCCNCCO)ccc(NCCNCCO)c21 [Mitoxantrone, reference compound]	720 ± 10	650 ± 20	750 ± 40	550 ± 40	1160 ± 150	–	550 to 1160	630 ± 40	–	–
CC1OC(OC2C(OC3CCC4(C)C5=CC(O)C67C(=O)OC(C)(C8CCC(C)(C)O8)C6(O)CCC7(C)C5CCC4C3(C)C)OCC(OS(=O)(=O)O)C2O)C(O)C(O)C1O (centres unmarked) [holothurin B (7), holothurin B]	–	–	–	–	–	did not exhibit high sensitivity	–	–	–	–

Source: publication PMC12560079, “Cytotoxic Triterpene Glycosides from Mexican Sea Cucumber Holothuria inornata” (Journal of Natural Products, 2025)
